Source: patent publication US20250082598A1, “Melafenoxate, 2-(1-adamantylamino)ethyl 2-(4-chlorophenoxy)acetate and derivatives thereof for treating circadian rhythm sleep disorders with neurodegenerative diseases such as Alzheimer's disease” (NLS Pharmaceutics AG, priority 2021, published 2025)

Test system: C57BL/6J mice
Assay: Scopolamine-induced amnesia in the novel object recognition (NOR) test
Format: in vivo
Conditions: scopolamine 1.2 mg/kg i.p. alone
Description: The scopolamine-induced amnesia in the novel object recognition (NOR) test in mice is a recognized in vivo model of Alzheimer Disease (AD).
The aim of this study is to examine whether Melafenoxate (NLS-8) improves amnesia induced by scopolamine in the NOR test.
Experiments were carried out on C57BL/6J mice.
In a first step of the experiment, NLS-8 was tested at 25, 50 and 100 mg/kg.
Animals were divided into 6 groups (N=4-10/group).
At T=0 min, they received the following treatments by intraperitoneal (i.p.) route: • Control group: vehicle. • Scopolamine group: scopolamine (1.2 mg/kg). • NLS-8 25 group: NLS-8 (25 mg/kg)+scopolamine (1.2 mg/kg). • NLS-8 50 group: NLS-8 (50 mg/kg)+scopolamine (1.2 mg/kg). • NLS-8 100 group: NLS-8 (100 mg/kg)+scopolamine (1.2 mg/kg). • NLS-8 150 group: NLS-8 (150 mg/kg)+scopolamine (1.2 mg/kg).
At T=30 min following treatment, animals were subjected to a sample trial. They were placed for a 12-min session in a circular experimental box in which two identical objects were presented (50% of animals: two brown cylindrical vials; 50% of animals: two black rectangular columns). At t=120 min following treatments, mice were subjected to a choice trial. They were placed again for a 12-min session in the same experimental box in which two different objects (a vial and a column) were presented: one of the objects (termed as familiar object) presented in the sample trial and a novel object. Exploration of the objects was recorded by an experimenter blind to treatment and unaware of which object was the novel one and which object was the familiar one.
DI(discrimination index)=100 ×(exploration time of the novel object−exploration time of the familiar object)/(exploration time of the novel object+exploration time of the familiar object). • Index of exploration: N+F=exploration time of the novel object+exploration time of the familiar object.
• Within group comparisons: DI vs. 0 (paired Student's t test). • Between group comparisons vs. the Control group and vs. the Scopo group: unpaired Student's t test.

CN1[C@@H]2C[C@@H](OC(=O)[C@H](CO)c3ccccc3)C[C@H]1[C@@H]1O[C@@H]12 [Scopo, scopolamine, reference compound]
discrimination index vs. 0 (within group): Not significantly different from 0
discrimination index vs. Control group: Significantly lower
